In patent publication US12673022B2, “Drug delivery system using solution” (Kyoto University, priority 2018, dated 2026):

Tests used:
[1] = tested on: C57BL/6J mouse right lower limb gastrocnemius; assay: DNA mutation introduction efficiency using mRosa26 gRNA (T7E1 assay) after local administration; type: in vivo
Method: Cas9 protein (20 μg), mRosa26 gRNA (5 μg), 10×PBS (5 μL) and a 2.0 M aqueous 2′-deoxycytidine solution (6.25 μL) were mixed so as to obtain an aqueous solution having final concentrations of 400 ng/μL Cas9 protein, 100 ng/μL mRosa26 gRNA, 533 mM sodium chloride and 250 mM 2′-deoxycytidine. The concentration of the resultant solution was adjusted to be 533 mM with a 5 M aqueous sodium chloride solution, diluted with UltraPure DNase/RNase-Free Distilled Water up to a liquid volume of 50 μL and incubated at normal temperature for 15 minutes. […] The Cas9 protein herein was subjected to buffer replacement with 250 mM sodium chloride by use of Amicon® Ultra 2 mL Centrifugal Filters and then put in use.
Cas9 protein (40 μg), mRosa26 gRNA (10 μg), 10×PBS (5 μL), and a […] compound stock solution (25 μL) were mixed so as to obtain final concentrations: 800 ng/μL Cas9 protein, 200 ng/μL mRosa26 gRNA, 533 mM sodium chloride and 250 mM compound. […]
To the right lower limb gastrocnemius of each of 9 weeks-old male C57BL/6J mice (CLEA Japan, Inc), administration solution 1 or administration solution 2 and PBS (50 μL) were administered. […] The resultant PCR product was purified by QIAquick PCR purification kit (QIAGEN), treated with T7 Endonuclease I (NEB) and analyzed by Agilent 4200 TapeStation (Agilent). […]
As shown in FIG. 10 and FIG. 11, to find statistical significant difference between GABA and each conditions of the compounds, Dunnett's multiple comparison test using DNA mutation introduction efficiency, Indel (%), and exon skipping efficiency, was carried out. It was determined that if P value is less than 0.05, these is a statistically significant difference. […]
A solution for transduction containing 2′-deoxycytidine as a compound (A3) and sodium chloride as the (B) salt was prepared. […] Administration solution 1 was locally administered to the mouse right lower limb gastrocnemius and the activity to cleave a target gene was evaluated. […]

[2] = tested on: EGFP reporter cells (C2C12 cells); assay: EGFP-SSA assay: uptake of Cas9 protein/gRNA complex into cells (EGFP positive rate); type: cell-based, mouse; conditions: Example 1; compound 100.0 mM; reaction solution 1 (550 mM sodium chloride, 1 mM HEPES, Cas9 protein/gRNA), 30 minutes
[3] = tested on: EGFP reporter cells (C2C12 cells); assay: Number of HOECHST cells detected (cell viability) in the EGFP-SSA assay; conditions: Example 1, formula (2)
Method: To each of the solutions, a complex of gRNA and Cas9 protein was further dissolved. Mouse myoblasts (C2C12 cells) were contacted with each of the solutions in vitro, and target gene cleavage activity and cell viability were evaluated.

[4] = tested on: EGFP reporter cells (C2C12 cells); assay: EGFP-SSA assay: uptake of Cas9 protein/gRNA complex into cells (EGFP positive rate); type: cell-based, mouse; conditions: Example 1; compound 250.0 mM; reaction solution 1 (550 mM sodium chloride, 1 mM HEPES, Cas9 protein/gRNA), 30 minutes
From the text: EGFP-SSA assay: an abbreviation of EGFP-single strand annealing assay. The reporter cassette shown in FIG. 1 is inserted in EGFP reporter cells. In the middle of the EGFP sequence of the cassette, MmDMD-Ex51 sequence is inserted. Since the presence of MmDMD-Ex51 sequence, by which EGFP ORF is divided, EGFP protein is not usually translated. However, when target sequence of MmDMD-Ex51 is cleaved by Cas9 protein/gRNA complex, the upstream region (EG part) and the downstream region (FP part) of EGFP ORF are annealed via a homology area into a single strand, with the result that a full-length EGFP ORF emerges to produce EGFP protein. Based on this principle, the ratio of the number of cells producing EGFP is checked by the EGFP-SSA assay. In this manner, the amount of Cas9 protein/gRNA complex delivered to cells can be predicted.
(§1) Cas9 protein (0.4 μg), tracrRNA (34.18 ng), MmDmd Ex51 crRNA (29.48 ng), a 1 M HEPES buffer (0.05 μL) and a 5 M aqueous sodium chloride solution (5.5 μL) were mixed and diluted with UltraPure DNase/RNase-Free Distilled Water up to a liquid volume of 37.5 μL so as to obtain final concentrations: 8 ng/μL Cas9 protein, 0.68 ng/μL tracrRNA, 0.59 ng/μL MmDmd Ex51 crRNA, 1 mM HEPES, 550 mM sodium chloride, and 250 mM compound. To this solution, a 1000 mM compound solution (12.5 μL) was added and the solution mixture was incubated at normal temperature for 15 minutes.
as §1, with “buffer (2.5” for “buffer (0.05”, “solution (4.85” for “solution (5.5”, “crRNA, 50” for “crRNA, 1”, “HEPES, 485” for “HEPES, 550”, “minutes. Note that, in the cases where the final concentrations of the compound are 0.69 mM, 25 mM, 100 mM, 125 mM, 160 mM, 200 mM and 500 mM, the compound stock solution was diluted with UltraPure DNase/RNase-Free Distilled Water up to concentrations of 2.76 mM, 100 mM, 400 mM, 500 mM, 640 mM, 800 mM and 2000 mM, respectively, and then, added. […]” for “minutes.”
Cas9 protein (2.0 μg), tracrRNA (170.9 ng), MmDmd Ex51 crRNA (147.4 ng), a 1 M HEPES buffer (12.5 μL), a 5 M aqueous sodium chloride solution (18.35 μL) and a 1 M aqueous GABA solution (62.5 μL) were mixed, diluted with UltraPure DNase/RNase-Free Distilled Water up to a liquid volume of 250 μL so as to obtain final concentrations: 8 ng/μL Cas9 protein, 0.68 ng/μL tracrRNA, 0.59 ng/μL MmDmd Ex51 crRNA, 50 mM HEPES, 250 mM GABA and 367 mM sodium chloride, and incubated at normal temperature for 15 minutes. Note that the addition amount of the 5 M aqueous sodium chloride solution was changed to 24.25 μL in the case of 485 mM sodium chloride and the addition amount was changed to 27.5 μL in the case of 550 mM sodium chloride, respectively.

SMILES: Nc1ccn([C@H]2C[C@H](O)[C@@H](CO)O2)c(=O)n1 [2′-Deoxycytidine]
- Genome editing (mutation introduction efficiency, indel (%)) ([1]; Example 5, administration solution 1: 250 mM 2′-deoxycytidine, sodium chloride 163, 233, 333, 433 or 533 mM, mRosa26 gRNA/Cas9, 50 μL for 3 consecutive days, FIG. 9): Genome editing was confirmed
- Compound activity: EGFP positive rate (%) [2]: 1.10%
- Relative ratio to GABA: Number of HOECHST cells ([3]; compound 100.0 mM vs 250 mM GABA positive control on the same plate): 1.01

SMILES: O=CC[C@@H](O)[C@H](O)[C@H](O)COP(=O)(O)O [Oxy-D-glucose-6-phosphate, 2-deoxy-D-glucose-6-phosphate]
- Genome editing efficiency (indel (%)) compared to 250 mM GABA ([1]; Example 6, administration solution 2: 25 mM or 250 mM 2′-deoxycytidine, 6-phospho-D-gluconic acid, N-carbamyl-L-aspartic acid or 2-deoxy-D-glucose-6-phosphate, 533 mM sodium chloride, 50 μL once, Dunnett's test, FIG. 10): statistically significant results compared to GABA
- Compound activity: EGFP positive rate (%) [4]: 1.38%
- Relative ratio to GABA: Number of HOECHST cells ([3]; compound 250.0 mM vs 250 mM GABA positive control on the same plate): 1.06
